Values quoted from earlier work, collected in US20060120979A1, “Skin care composition comprising hydroquinone and a substantially anhydrous base” (priority 2004, published 2006).

SMILES: Oc1ccc(O)cc1 [Hydroquinone]
- solubility in alcohols (alcohols): freely soluble
- solubility in water (water): less soluble
